Holding throughout (type): biochemical
Assay [1] concerns the target T1, JIK (Homo sapiens, UniProt Q9H2K8).
T1 construct: 6 nM JIK (baculovirus expressed human KIAA 1361 kinase domain2-318); made in house
T1 sequence (Q9H2K8 2-318): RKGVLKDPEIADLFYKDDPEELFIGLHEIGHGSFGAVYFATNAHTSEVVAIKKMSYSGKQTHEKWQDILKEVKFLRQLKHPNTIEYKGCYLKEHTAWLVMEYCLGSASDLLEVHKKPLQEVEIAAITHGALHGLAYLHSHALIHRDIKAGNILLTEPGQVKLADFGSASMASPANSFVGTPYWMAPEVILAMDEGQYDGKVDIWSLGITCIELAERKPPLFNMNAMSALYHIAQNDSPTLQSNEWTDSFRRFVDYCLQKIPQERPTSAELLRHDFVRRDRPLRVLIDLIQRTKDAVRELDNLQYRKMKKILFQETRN
Briefly: JIK Luciferase-Coupled Chemiluminescent Kinase assay (LCCA). To be noted: 2 μM ATP, 10 μM MBP, 6 nM JIK, 2 hours; read-out: JIK inhibition IC50. How it is done:
(§1) Kinase activity and compound inhibition are investigated using one or more of the three assay formats described below. The ATP concentrations for each assay are selected to be close to the Michaelis-Menten constant (KM) for each individual kinase. Dose-response experiments are performed at 10 different inhibitor concentrations in a 384-well plate format. The data are fitted to four-parameter equation (2) below; where Y is the observed signal, X is the inhibitor concentration, Min is the background signal in the absence of enzyme (0% enzyme activity), Max is the signal in the absence of inhibitor (100% enzyme activity), IC50 is the inhibitor concentration at 50% enzyme inhibition and H represents the empirical Hill's slope to measure the cooperativity. Typically H is close to unity. Y=Min+(Max−Min)/(1+(X/IC50)ˆH) Equation (2) KIAA 1361 Assay: […]
(§2) JIK biochemical activity was assessed using a Luciferase-Coupled Chemiluminescent Kinase assay (LCCA) format. Kinase activity was measured as the percent ATP remaining following the kinase reaction. Remaining ATP was detected by luciferase-luciferin-coupled chemiluminescence. Specifically, the reaction was initiated by mixing test compounds, 2 μM ATP, 10 μM MBP and 6 nM JIK (baculovirus expressed human KIAA 1361 kinase domain2-318) in a 20 uL assay buffer (20 mM Tris-HCL pH7.5, 10 mM MgCl2, 0.02% Triton X-100, 100 mM DTT, 2 mM MnCl2). The mixture is incubated at ambient temperature for 2 hours after which 20 uL luciferase-luciferin mix is added and the chemiluminescent signal read using a Wallac Victor^2 reader. The luciferase-luciferin mix consists of 50 mM HEPES, pH 7.8, 8.5 ug/mL oxalic acid (pH 7.8), 5 (or 50) mM DTT, 0.4% Triton X-100, 0.25 mg/mL coenzyme A, 63 uM AMP, 28 ug/mL luciferin and 40,000 units of light/mL luciferase.

Assay [2] has as its target T2, KIAA 1361 (baculovirus expressed human KIAA 1361 kinase domain 2-322) (Homo sapiens, UniProt Q7L7X3).
T2 construct: human KIAA 1361 kinase domain 2-322; made in house
T2 sequence (Q7L7X3 2-322): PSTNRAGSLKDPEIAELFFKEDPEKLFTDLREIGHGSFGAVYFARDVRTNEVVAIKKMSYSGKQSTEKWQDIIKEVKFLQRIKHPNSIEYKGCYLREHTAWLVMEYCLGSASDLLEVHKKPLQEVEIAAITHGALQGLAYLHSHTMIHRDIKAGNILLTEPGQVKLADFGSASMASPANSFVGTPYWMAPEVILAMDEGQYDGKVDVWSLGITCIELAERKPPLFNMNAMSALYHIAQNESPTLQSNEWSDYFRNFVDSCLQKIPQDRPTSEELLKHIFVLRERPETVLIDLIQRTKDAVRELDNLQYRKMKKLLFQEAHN
Briefly: KIAA 1361 Luciferase-Coupled Chemiluminescent Kinase assay (LCCA). The note with it: 2 μM ATP, 10 μM MBP, 12 nM KIAA 1361, 2 hours; read-out: KIAA1361 inhibition IC50. How it is done: as §1
as §2, with “KIAA 1361 biochemical” for “JIK biochemical”, “and 12” for “and 6”, “nM KIAA 1361” for “nM JIK”, “kinase domain 2-322)” for “kinase domain2-318)”

Assay [3] has as its target T3, TAO (Homo sapiens, UniProt Q9UL54).
T3 sequence (Q9UL54 1-1235): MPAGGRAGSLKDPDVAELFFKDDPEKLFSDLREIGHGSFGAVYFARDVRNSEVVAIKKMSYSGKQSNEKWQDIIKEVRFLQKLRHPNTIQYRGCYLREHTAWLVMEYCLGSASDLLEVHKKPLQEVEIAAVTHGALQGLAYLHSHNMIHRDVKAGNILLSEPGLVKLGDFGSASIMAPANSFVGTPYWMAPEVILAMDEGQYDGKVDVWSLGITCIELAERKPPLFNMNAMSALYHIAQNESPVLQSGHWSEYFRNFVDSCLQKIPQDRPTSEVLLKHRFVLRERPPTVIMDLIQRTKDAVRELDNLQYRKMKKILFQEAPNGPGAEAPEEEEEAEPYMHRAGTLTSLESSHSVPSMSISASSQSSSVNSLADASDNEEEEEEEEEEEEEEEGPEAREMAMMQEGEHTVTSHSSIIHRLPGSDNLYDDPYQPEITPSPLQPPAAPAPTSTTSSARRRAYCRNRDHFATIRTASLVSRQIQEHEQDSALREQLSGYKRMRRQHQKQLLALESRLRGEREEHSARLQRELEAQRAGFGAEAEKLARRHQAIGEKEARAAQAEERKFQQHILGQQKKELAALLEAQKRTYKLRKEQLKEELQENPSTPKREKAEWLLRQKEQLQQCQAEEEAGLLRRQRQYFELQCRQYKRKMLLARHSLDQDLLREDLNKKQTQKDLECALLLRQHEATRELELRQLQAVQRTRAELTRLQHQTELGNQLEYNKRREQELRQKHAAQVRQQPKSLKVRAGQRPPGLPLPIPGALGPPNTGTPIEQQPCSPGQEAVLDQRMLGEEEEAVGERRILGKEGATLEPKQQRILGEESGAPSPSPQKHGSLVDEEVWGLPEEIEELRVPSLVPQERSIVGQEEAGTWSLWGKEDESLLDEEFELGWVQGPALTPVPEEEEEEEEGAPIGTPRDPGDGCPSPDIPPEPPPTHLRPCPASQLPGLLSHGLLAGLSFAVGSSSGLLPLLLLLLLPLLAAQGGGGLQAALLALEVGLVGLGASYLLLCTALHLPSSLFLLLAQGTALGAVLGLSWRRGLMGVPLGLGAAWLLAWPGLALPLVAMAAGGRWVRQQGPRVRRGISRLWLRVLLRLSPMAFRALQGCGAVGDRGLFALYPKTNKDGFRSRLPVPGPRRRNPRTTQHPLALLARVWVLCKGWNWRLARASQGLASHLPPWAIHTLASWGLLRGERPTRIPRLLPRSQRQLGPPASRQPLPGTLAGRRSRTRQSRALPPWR
Briefly: TAO Luciferase-Coupled Chemiluminescent Kinase assay (LCCA). To be noted: 2 μM ATP, 10 μM MBP, 12 nM TAO, 2 hours; read-out: TAO inhibition IC50. How it is done:
as §1
as §2, with “TAO biochemical” for “JIK biochemical”, “and 12” for “and 6”, “nM TAO” for “nM JIK”, “kinase domain 2-322)” for “kinase domain2-318)”, “mM […],” for “mM HEPES,”, “[…]” for “0.25 mg/mL”

Each structure is given as a SMILES string. A value given as a limit tells only on which side of the number the result lay.

Turning to `COc1cc2cc(C(=O)N[C@@H](Cc3c[nH]c4ccccc34)C(=O)NC3CCCc4ccccc43)[nH]c2cc1OC` (stereo partly drawn) [Entry 13, Nalpha-{[5,6-bis(methyloxy)-1H-indol-2-yl]carbonyl}-N-(1,2,3,4-tetrahydronaphthalen-1-yl)tryptophanamide], the IC50 (in general, the concentration needed to halve the response being measured) in assay [1] is < 50 nM; in assay [2], 50 to 500 nM; in assay [3] it was 500 to 5000 nM.

Turning to `CCCCOc1ccc(C(=O)N[C@@H](Cc2c[nH]c3ccccc23)C(=O)NC2CCCc3ccccc32)cc1` (stereo partly drawn) [Entry 14, Nalpha-{[4-(butyloxy)phenyl]carbonyl}-N-(1,2,3,4-tetrahydronaphthalen-1-yl)tryptophanamide], the IC50 in assay [1] fell in the range of 50 to 500 nM; in assay [2], 50 to 500 nM; in assay [3], 500 to 5000 nM.

Regarding `COc1ccc(/C=C/C(=O)N2Cc3[nH]cnc3CC2C(=O)NCCc2cccc(Cl)c2)cc1OC` (stereo not drawn) [Entry 15, 5-{(2E)-3-[3,4-bis(methyloxy)phenyl]prop-2-enoyl}-N-[2-(3-chlorophenyl)ethyl]-4,5,6,7-tetrahydro-3H-imidazol[4,5-c]pyridine-6-carboxamide], the 50% inhibitory concentration (IC50) in assay [1] was < 50 nM; in assay [2], 50 to 500 nM; in assay [3] it was 500 to 5000 nM.

Regarding `O=C(NC(C(=O)NC1CCCc2ccccc21)c1cccnc1)c1ccc(-n2cncn2)cc1` (stereo not drawn) [Entry 16, N-[2-oxo-1-pyridin-3-yl-2-(1,2,3,4-tetrahydronaphthalen-1-ylamino)ethyl]-4-(1H-1,2,4-triazol-1-yl)benzamide], the half-maximal inhibitory concentration (IC50) in assay [1], in assay [2] and in assay [3] was 50 to 500 nM each time.

For the compound `COc1ccc(/C=C/C(=O)N[C@@H](Cc2c[nH]c3ccccc23)C(=O)NC2CCCc3ccccc32)cc1OC` (stereo partly drawn) [Entry 17, Nalpha-{(2E)-3-[3,4-bis(methyloxy)phenyl]prop-2-enoyl}-N-(1,2,3,4-tetrahydronaphthalen-1-yl)tryptophanamide], the IC50 in assay [1] is 50 to 500 nM; in assay [2], 50 to 500 nM; in assay [3], 500 to 5000 nM.

For the compound `CCCCOc1ccc(C(=O)NC(C)C(=O)NC2CCc3ccccc3C2)cc1` (stereo not drawn) [Entry 18, 4-(butyloxy)-N-[1-methyl-2-oxo-2-(1,2,3,4-tetrahydronaphthalen-2-ylamino)ethyl]benzamide], the values for the IC50 in assay [1], in assay [2] and in assay [3] were 50 to 500 nM, 50 to 500 nM and 500 to 5000 nM, respectively.

As to `CC(NC(=O)c1ccc(OCc2ccccc2)cc1)C(=O)NC1CCc2ccccc2C1` (stereo not drawn) [Entry 19, N-[1-methyl-2-oxo-2-(1,2,3,4-tetrahydronaphthalen-2-ylamino)ethyl]-4-[(phenylmethyl)oxy]benzamide], the results for the IC50 in assay [1], in assay [2] and in assay [3] were 50 to 500 nM, 50 to 500 nM and 500 to 5000 nM, respectively.

For the compound `Cc1cc(C(=O)NCC(=O)NC2CCCc3ccccc32)cc(C)c1OCc1ccccc1` (stereo not drawn) [Entry 20, 3,5-dimethyl-N-{2-oxo-2-(1,2,3,4-tetrahydronaphthalen-1-ylamino)ethyl]-4-[(phenylmethyl)oxy]benzamide], the half-inhibitory concentration (IC50) in assay [1] is 50 to 500 nM; in assay [2] it was 50 to 500 nM; in assay [3], 500 to 5000 nM.

Take `CCCCOc1ccc(NC(=O)N[C@@H](COCc2ccccc2)C(=O)NCCc2ccccc2)cc1` [Entry 21, N˜2˜-({[4-(butyloxy)phenyl]amino}carbonyl)-N-(2-phenylethyl)-O-(phenylmethyl)serinamide]: the IC50 in assay [1] was 50 to 500 nM; in assay [2], 50 to 500 nM; in assay [3], > 5000 nM.

For `CCCCc1ccc(NC(=O)N2CCC[C@H]2C(=O)NCc2ccc(Cl)c(Cl)c2)cc1` [Entry 22, (2S)-N˜-1˜-(4-butylphenyl)-N˜2˜-[(3,4-dichlorophenyl)methyl]pyrrolidine-1,2-dicarboxamide], the IC50 in assay [1] was in the range of 50 to 500 nM; in assay [2], 50 to 500 nM; in assay [3] it was 500 to 5000 nM.

With `COc1ccc2nc(NC(=O)CCCNC(=O)Cn3cnc4sc5c(c4c3=O)CCCC5)sc2c1` [Entry 23, N-[6-(methyloxy)-1,3-benzothiazol-2-yl]-4-{[(4-oxo-5,6,7,8-tetrahydro[1]benzothieno[2,3-d]pyrimidin-3(4H)-yl)acetyl]amino}butanamide], the IC50 in assay [1] was 50 to 500 nM; in assay [2], 50 to 500 nM; in assay [3], 500 to 5000 nM.

(Values after patent publication US20070208166A1, “Tao Kinase Modulators And Method Of Use” (Exelixis, Inc., priority 2003, published 2007).)
